Data published in US20220241249A1, “PHARMACEUTICAL COMPOSITION AND KIT CONTAINING NOVEL PENAM DERIVATIVE OR SALT THEREOF AND ONE OR MORE COMPOUNDS SELECTED FROM beta-LACTAMASE INHIBITORY COMPOUND AND ANTIBACTERIAL COMPOUND OR SALTS THEREOF” (priority 2019, published 2022).

What was measured:
Assay in all cases: MIC of test compound alone or with β-lactamase inhibitor at 4 μg/mL
Assay type in all cases: cell-based
[1] = system: Escherichia coli TK-3113 strain producing IMP-8 (strain D)
Experimental: (§1) By using a broth microdilution method, the combinational effect of a test compound and a β-lactamase inhibitor was evaluated.
(§2) The evaluation test for antibacterial activity was performed in the same manner as in Test Example 1.
Escherichia coli TK-3113 strain producing IMP-8 (hereinafter, called strain D),
(§3) An antibacterial activity evaluation test was performed in the same manner as in Test Example 6.
(§4) As the bacterial strain, the strains B, C, and D producing β-lactamase and a Klebsiella pneumoniae Y-1069 strain (hereinafter, called strain F) producing OXA-48 and CTX-M-15 were used.

[2] = system: Escherichia coli TK-1747 strain producing CTX-M-15 (strain A); conditions: Escherichia coli, test compound alone (β-lactamase inhibitor N/A), read-out: MIC
Experimental: as §1, §2
Escherichia coli TK-1747 strain producing CTX-M-15 (hereinafter, called strain A),

[3] = system: Klebsiella pneumoniae Y-1020 strain producing KPC-3 and SHV-12 (strain B); conditions: for MIC: Strain B
Experimental: as §1, §2

[4] = system: Escherichia coli TK-1765 strain producing CMY-2 (strain E)
Experimental: as §1, §2
Escherichia coli TK-1765 strain producing CMY-2 (hereinafter, called strain E)

[5] = system: Klebsiella pneumoniae Y-1133 strain producing NDM-1, OXA-48, and CTX-M-15 (strain C)
Experimental: as §1, §2
Klebsiella pneumoniae Y-1133 strain producing NDM-1, OXA-48, and CTX-M-15 (hereinafter, called strain C),
as §3, §4

[6] = test compound alone (β-lactamase inhibitor N/A)

How did the MIC ([1]; Escherichia coli, AVI added at 4 μg/mL) turn out when `CC(C)(O/N=C(\C(=O)N[C@@H]1C(=O)N2C(C(=O)[O-])=C(C[n+]3ccccc3)CS[C@H]12)c1csc(N)n1)C(=O)O` [CAZ, ceftazidime hydrate, reference compound] was run?
The MIC was greater than 128 µg/mL.

And the MIC ([1]; Escherichia coli, test compound alone (β-lactamase inhibitor N/A))?
Its MIC is greater than 128 µg/mL.

Which MIC [2] does the source give for `CO/N=C(\C(=O)N[C@@H]1C(=O)N2C(C(=O)O)=C(COC(C)=O)CS[C@H]12)c1csc(N)n1` [CTX, cefotaxime sodium, reference compound] here?
Its MIC is greater than 128 µg/mL.

Which MIC ([1]; AVI added at 4 μg/mL) does the source give for `CC(C)(O/N=C(\C(=O)N[C@@H]1C(=O)N2C[C@@](C(=O)O)(N3CCN(NC(=O)C(=O)c4ccc(O)c(O)c4Cl)C3=O)S[C@H]12)c1nc(N)sc1Cl)C(=O)O` [Compound D] here?
The MIC was 0.5 µg/mL.

What about the MIC ([1]; NAC added at 4 μg/mL) of the same molecule?
Its MIC is 0.06 µg/mL.

And the MIC ([1]; ZID added at 4 μg/mL)?
The MIC was 0.03 µg/mL.

And the MIC [1, 6]?
The MIC was 1 µg/mL.

And the MIC ([3]; AVI added at 4 μg/mL)?
Its MIC is 0.25 µg/mL.

And the MIC ([3]; NAC added at 4 μg/mL)?
The MIC was less than 0.015 µg/mL.

And the MIC ([3]; ZID added at 4 μg/mL)?
Its MIC is less than 0.015 µg/mL.

And the MIC [3, 6]?
Its MIC is 2 µg/mL.

What about the “antibacterial activity in combination with a β-lactamase inhibitor versus without” value ([3]; for all the bacterial strains (strains A to E), summary of Tables 43 to 47) of the same molecule?
The value was “higher antibacterial activity”.

What about the MIC [4, 6] of the same molecule?
The MIC was 0.5 µg/mL.

And the MIC ([4]; with AVI at 4 μg/mL)?
The MIC was 0.03 µg/mL.

What about the MIC ([4]; with CVA at 4 μg/mL) of the same molecule?
The MIC was 0.25 µg/mL.

And the MIC ([4]; with SBT at 4 μg/mL)?
The MIC was 0.25 µg/mL.

What about the MIC ([4]; with TAZ at 4 μg/mL) of the same molecule?
Its MIC is 0.06 µg/mL.

What about the MIC ([4]; with VAB at 4 μg/mL) of the same molecule?
The MIC was 0.12 µg/mL.

And the MIC ([5]; AVI added at 4 μg/mL)?
The MIC was 0.12 µg/mL.

What about the MIC ([5]; NAC added at 4 μg/mL) of the same molecule?
The MIC was less than 0.015 µg/mL.

And the MIC ([5]; ZID added at 4 μg/mL)?
The MIC was less than 0.015 µg/mL.

And the MIC [5, 6]?
The MIC was 0.5 µg/mL.
